pIC50: −log10 of the molar value.

The target in assay [1] is Serine/threonine-protein kinase 26 (Homo sapiens, UniProt Q9P289). Kind of assay: Selectivity interaction (Kinase panel (Z-LYTE Assay)) EUB0001632a STK26. The conditions noted are these: at 10 µM.
The target of assay [2] is T1, Ephrin type-A receptor 6 (Homo sapiens) (UniProt Q9UF33).
T1 sequence (whole entry): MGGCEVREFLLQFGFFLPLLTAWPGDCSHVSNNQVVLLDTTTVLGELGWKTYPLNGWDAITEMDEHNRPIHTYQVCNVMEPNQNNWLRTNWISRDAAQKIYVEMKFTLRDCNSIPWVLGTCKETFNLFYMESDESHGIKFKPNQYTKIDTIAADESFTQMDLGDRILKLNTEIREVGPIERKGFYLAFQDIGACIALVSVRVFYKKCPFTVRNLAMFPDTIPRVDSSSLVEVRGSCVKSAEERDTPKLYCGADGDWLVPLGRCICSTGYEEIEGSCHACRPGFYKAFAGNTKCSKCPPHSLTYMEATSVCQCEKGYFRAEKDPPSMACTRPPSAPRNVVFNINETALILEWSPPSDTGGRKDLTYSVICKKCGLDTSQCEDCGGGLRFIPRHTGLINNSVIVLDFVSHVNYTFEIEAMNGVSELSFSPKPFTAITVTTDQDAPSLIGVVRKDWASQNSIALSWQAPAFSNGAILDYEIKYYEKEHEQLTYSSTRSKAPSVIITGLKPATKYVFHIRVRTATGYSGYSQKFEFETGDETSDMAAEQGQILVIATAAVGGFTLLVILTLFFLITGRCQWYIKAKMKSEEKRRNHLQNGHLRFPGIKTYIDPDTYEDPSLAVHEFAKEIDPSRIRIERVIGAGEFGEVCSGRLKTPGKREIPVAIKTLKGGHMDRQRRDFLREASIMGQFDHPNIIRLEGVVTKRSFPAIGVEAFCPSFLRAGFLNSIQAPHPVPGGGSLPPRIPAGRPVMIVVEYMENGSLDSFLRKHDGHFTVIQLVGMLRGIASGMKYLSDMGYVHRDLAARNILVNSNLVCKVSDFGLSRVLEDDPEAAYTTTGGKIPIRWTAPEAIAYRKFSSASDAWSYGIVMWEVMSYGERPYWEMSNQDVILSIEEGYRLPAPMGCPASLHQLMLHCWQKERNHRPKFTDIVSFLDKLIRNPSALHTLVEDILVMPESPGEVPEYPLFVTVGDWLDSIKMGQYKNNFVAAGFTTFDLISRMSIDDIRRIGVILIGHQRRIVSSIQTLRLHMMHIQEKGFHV
Kind of assay: Selectivity interaction (Ambit KINOMEscan and KiNATiv profiling in Jurkat cells) EUB0000090b EPHA6. The assay is classed as cell-based. The conditions noted are these: at 1 µM.

The test system of assay [3] is Epidermal growth factor receptor (Homo sapiens), P00533 [UNDEFINED MUTATION]. The experiment in a line: Selectivity interaction (KinomeScan (DiscoverX)) EUB0000607a EGFR. The conditions noted are these: at 10 µM.
Chain of Epidermal growth factor receptor (Homo sapiens), P00533 [UNDEFINED MUTATION] (P00533 whole entry, looked up, change not shown): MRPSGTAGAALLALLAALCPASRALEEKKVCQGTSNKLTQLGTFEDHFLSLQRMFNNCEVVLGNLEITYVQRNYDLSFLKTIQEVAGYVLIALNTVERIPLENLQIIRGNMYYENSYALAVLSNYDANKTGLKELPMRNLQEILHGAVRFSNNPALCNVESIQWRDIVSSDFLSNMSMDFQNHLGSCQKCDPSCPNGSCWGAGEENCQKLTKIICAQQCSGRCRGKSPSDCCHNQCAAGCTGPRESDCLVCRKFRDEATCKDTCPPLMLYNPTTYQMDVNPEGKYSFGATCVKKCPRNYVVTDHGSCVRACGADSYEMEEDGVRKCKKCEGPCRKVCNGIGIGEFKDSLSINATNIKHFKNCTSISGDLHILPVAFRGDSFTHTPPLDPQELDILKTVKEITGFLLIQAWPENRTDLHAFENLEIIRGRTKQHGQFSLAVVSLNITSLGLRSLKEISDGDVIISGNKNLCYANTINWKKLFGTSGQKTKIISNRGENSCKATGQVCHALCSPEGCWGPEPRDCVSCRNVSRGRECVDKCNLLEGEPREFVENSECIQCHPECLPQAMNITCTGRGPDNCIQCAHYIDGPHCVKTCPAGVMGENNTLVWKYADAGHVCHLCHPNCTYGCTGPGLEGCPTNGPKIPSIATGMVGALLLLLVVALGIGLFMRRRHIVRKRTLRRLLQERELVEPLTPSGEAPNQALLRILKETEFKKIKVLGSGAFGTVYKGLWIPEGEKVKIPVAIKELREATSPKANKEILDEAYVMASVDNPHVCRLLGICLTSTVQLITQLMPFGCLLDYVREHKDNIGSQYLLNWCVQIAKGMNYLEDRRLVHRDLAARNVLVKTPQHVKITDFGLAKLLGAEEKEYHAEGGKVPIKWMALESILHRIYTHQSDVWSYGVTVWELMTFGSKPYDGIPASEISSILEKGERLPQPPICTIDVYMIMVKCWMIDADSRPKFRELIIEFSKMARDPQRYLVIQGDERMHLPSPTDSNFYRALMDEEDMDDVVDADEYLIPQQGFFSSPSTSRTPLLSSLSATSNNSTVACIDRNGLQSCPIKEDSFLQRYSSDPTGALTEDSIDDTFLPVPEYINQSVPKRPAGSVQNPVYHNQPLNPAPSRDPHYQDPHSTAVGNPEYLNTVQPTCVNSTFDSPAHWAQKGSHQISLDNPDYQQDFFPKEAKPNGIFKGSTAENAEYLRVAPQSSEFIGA
The target of assay [4] is Activin receptor type-2B (Homo sapiens) (UniProt Q13705). The conditions noted are these: at 10 µM.
Chain of Activin receptor type-2B (Homo sapiens) (Q13705 whole entry): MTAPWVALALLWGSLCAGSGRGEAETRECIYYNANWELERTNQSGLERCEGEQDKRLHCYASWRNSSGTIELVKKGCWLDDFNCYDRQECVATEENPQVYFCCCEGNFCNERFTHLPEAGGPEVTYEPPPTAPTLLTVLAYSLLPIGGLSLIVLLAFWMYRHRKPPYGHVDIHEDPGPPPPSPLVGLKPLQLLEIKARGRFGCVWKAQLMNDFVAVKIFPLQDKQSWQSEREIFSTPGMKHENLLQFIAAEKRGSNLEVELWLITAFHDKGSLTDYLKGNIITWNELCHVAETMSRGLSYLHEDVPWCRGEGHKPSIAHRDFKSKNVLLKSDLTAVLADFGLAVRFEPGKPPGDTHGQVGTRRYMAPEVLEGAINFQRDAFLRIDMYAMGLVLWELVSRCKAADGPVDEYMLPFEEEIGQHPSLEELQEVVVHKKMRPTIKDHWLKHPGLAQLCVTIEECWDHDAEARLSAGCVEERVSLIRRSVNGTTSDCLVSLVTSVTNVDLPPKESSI
For assay [5], the target named is Serine/threonine-protein kinase pim-2 (Homo sapiens, UniProt Q9P1W9). The experiment in a line: Selectivity interaction (KinomeScan (DiscoverX)) EUB0000229b PIM2. The conditions noted are these: at 10 µM.
Assay [6] has as its target T2, Tyrosine-protein kinase JAK3 (Homo sapiens, UniProt P52333).
T2 sequence (P52333 whole entry): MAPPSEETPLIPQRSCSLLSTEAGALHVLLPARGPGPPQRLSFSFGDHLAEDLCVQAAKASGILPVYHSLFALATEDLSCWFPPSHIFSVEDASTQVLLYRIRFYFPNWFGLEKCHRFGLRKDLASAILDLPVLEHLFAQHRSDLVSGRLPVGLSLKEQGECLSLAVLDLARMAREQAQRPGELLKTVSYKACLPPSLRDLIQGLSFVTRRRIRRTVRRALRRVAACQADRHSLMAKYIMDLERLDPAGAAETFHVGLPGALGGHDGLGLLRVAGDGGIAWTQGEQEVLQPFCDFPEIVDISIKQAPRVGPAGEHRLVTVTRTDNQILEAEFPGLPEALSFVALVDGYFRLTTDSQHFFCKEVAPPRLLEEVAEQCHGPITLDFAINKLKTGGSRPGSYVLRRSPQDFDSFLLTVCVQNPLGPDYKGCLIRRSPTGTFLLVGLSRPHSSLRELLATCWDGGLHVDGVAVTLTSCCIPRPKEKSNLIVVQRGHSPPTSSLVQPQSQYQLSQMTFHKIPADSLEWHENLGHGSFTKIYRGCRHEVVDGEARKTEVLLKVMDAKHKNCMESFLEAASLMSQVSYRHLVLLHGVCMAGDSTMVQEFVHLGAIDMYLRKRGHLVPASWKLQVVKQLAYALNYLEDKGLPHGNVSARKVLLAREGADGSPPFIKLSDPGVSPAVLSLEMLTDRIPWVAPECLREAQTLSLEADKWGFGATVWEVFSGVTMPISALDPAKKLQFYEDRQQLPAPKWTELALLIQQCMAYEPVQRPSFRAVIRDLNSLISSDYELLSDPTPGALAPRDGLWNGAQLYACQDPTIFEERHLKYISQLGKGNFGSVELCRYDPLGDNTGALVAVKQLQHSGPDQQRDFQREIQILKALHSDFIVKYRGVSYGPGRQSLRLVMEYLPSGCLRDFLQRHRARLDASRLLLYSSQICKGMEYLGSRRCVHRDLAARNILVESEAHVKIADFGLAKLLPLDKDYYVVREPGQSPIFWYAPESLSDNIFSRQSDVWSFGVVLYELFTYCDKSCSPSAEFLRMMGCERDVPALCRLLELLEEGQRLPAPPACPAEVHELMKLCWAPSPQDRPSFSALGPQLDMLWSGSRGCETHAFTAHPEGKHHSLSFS
Kind of assay: Selectivity interaction (Enyzmatic assay) EUB0000601a JAK3.

Assay [7] has as its target Mitogen-activated protein kinase 9 (Homo sapiens, UniProt P45984). The experiment in a line: Selectivity interaction (Kinase panel (literature)) EUB0001199aCl MAPK9. The conditions noted are these: at 1 µM.
For assay [8], the target named is Rho-associated protein kinase 2 (Homo sapiens, UniProt O75116). The experiment in a line: Selectivity interaction (Kinase screening (Upstate/Millipore)) EUB0000604a ROCK2.
Assay [9] addresses Cyclin-dependent kinase 19 (Homo sapiens) (UniProt Q9BWU1). Kind of assay: Selectivity interaction (KinomeScan (DiscoverX)) EUB0001049a CDK19. Conditions: at 1 µM.
Assay [10] addresses Transcription initiation factor TFIID subunit 1 (Homo sapiens) (UniProt P21675). Kind of assay: Selectivity interaction (Human bromodomain panel (DSF assay)) EUB0000233b TAF1. On the technique in general: DSF heats the sample and reads unfolding from a dye or from intrinsic fluorescence.
Assay [11] has as its target Fibroblast growth factor receptor 2 (Homo sapiens) (UniProt P21802). Kind of assay: Selectivity interaction (KinomeScan (DiscoverX)) EUB0000045b FGFR2.
Assay [12] has as its target Macrophage colony-stimulating factor 1 receptor (Homo sapiens) (UniProt P07333). Kind of assay: Selectivity interaction (Upstate Kinase Profiler service (Millipore)) EUB0000056c CSF1R. Conditions: at 1 µM.
Assay [13] deals with Leukocyte tyrosine kinase receptor (Homo sapiens, UniProt P29376). The experiment in a line: Selectivity interaction (KinomeScan (DiscoverX)) EUB0000595a LTK. Conditions: at 10 µM.

Chain of Fibroblast growth factor receptor 2 (Homo sapiens) (P21802 22-821 limits assumed): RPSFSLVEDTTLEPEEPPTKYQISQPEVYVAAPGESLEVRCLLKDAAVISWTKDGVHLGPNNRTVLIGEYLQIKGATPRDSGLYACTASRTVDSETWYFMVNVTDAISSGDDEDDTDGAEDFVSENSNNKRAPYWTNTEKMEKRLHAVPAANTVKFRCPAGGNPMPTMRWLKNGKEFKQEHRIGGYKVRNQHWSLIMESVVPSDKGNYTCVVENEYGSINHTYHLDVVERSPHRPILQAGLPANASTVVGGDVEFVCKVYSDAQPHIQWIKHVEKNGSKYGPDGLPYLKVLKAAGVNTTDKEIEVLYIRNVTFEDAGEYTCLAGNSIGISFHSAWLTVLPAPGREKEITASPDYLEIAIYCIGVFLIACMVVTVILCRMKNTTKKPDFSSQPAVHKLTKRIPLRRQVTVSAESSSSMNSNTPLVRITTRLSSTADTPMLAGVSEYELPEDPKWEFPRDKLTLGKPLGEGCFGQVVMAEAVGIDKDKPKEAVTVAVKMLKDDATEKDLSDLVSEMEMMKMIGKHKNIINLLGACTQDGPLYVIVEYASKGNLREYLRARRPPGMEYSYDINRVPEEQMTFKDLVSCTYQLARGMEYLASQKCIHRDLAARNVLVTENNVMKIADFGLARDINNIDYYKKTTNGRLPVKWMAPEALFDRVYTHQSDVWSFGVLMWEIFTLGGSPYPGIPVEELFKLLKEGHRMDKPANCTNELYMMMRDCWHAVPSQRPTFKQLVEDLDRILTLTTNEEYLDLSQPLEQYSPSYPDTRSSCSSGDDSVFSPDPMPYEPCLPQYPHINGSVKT
Chain of Macrophage colony-stimulating factor 1 receptor (Homo sapiens) (P07333 whole entry): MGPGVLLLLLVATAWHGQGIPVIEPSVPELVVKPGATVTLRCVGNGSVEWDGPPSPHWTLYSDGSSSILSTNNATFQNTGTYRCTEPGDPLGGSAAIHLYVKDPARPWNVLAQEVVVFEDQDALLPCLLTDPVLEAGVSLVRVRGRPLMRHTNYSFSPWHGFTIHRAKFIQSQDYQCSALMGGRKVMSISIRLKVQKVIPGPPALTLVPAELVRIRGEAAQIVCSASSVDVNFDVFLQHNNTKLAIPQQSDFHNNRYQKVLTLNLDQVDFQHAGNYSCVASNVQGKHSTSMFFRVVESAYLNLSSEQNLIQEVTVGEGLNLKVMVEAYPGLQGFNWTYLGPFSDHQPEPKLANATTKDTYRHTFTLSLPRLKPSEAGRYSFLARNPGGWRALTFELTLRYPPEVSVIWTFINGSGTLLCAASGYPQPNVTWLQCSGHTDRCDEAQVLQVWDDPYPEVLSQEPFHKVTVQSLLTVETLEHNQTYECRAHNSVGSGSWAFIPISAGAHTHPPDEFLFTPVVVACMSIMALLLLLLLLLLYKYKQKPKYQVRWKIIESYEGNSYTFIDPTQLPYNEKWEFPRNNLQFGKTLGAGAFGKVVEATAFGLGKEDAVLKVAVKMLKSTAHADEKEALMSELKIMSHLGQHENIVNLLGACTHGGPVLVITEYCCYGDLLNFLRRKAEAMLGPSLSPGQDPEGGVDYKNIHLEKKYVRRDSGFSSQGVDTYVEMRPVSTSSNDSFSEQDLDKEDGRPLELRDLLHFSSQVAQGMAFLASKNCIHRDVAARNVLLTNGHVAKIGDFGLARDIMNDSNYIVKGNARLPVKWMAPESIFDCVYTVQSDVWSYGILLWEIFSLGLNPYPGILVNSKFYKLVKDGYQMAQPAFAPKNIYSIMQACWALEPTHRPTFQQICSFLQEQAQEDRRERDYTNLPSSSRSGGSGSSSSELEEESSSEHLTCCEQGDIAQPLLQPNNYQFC
Chain of Serine/threonine-protein kinase 26 (Q9P289 2-416 limits assumed): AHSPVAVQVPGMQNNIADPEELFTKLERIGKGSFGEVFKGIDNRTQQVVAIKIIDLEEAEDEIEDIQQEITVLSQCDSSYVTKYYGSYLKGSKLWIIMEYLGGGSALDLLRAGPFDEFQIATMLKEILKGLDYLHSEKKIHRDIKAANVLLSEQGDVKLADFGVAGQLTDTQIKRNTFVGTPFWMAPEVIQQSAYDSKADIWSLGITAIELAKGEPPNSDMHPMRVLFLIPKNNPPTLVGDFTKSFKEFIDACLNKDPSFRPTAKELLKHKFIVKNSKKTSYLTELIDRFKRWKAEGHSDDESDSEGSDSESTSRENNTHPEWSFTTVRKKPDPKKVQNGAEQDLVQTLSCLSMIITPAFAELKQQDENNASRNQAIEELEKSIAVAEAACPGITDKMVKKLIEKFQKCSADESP
Chain of Cyclin-dependent kinase 19 (Homo sapiens) (Q9BWU1 whole entry): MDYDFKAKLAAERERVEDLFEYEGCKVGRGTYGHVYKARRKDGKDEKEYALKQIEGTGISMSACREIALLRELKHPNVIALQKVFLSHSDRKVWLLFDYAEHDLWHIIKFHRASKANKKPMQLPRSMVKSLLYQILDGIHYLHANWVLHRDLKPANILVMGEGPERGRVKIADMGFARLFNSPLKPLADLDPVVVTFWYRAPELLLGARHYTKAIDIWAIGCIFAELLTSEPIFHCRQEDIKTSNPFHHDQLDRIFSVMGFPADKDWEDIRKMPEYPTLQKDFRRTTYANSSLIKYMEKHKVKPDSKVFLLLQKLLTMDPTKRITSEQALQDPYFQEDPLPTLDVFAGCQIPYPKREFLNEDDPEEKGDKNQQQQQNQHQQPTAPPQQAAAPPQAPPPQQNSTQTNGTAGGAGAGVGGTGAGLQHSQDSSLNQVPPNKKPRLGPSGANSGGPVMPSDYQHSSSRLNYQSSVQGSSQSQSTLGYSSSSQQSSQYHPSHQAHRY
Chain of Mitogen-activated protein kinase 9 (P45984 whole entry, looked up): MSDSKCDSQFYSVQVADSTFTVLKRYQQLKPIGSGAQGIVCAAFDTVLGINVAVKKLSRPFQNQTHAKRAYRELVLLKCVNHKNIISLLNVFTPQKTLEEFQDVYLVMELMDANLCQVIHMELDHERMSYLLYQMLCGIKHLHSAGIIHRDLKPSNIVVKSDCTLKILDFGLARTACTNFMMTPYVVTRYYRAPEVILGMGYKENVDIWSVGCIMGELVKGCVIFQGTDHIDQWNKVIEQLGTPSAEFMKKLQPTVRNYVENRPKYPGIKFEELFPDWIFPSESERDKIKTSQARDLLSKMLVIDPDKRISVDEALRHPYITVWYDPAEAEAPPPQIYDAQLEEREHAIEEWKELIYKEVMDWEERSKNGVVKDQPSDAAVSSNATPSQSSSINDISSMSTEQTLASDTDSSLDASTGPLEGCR

`Cn1cc(-n2cnc3c(NCc4nc5cc(Cl)c(Cl)cc5[nH]4)nc(N4CCOCC4)nc32)cn1` showed a % of control in assay [1] of 2.09%. Take `CN(C)C/C=C/C(=O)Nc1ccc(C(=O)N2CCCC(Nc3ncc(Cl)c(-c4c[nH]c5ccccc45)n3)C2)cc1` (centres undefined): in assay [2], the % of control was 93%. In assay [3], `CNC(=O)Nc1ccc(-c2nc(N3CC4CCC(C3)O4)c3cnn(C4CCC5(CC4)OCCO5)c3n2)cc1` displayed a % of control of 55%. In turn, `Cc1cc([C@@H](C)Nc2ccccc2C(=O)O)c2nc(N3CCOCC3)cc(=O)n2c1` [AZD-6482] gave a % of control in [4] of 100%. `COc1cc(N(C)c2ccnc3ccc(C(F)(F)F)cc23)cc(OC)c1OC` came in with a % binding in assay [5] of 100%.

Consider `CCc1cc(Nc2nccc(-c3c(-c4ccc(OC)c(C(=O)Nc5c(F)cccc5F)c4)nc4ccccn34)n2)c(OC)cc1N1CCC(N2CCN(S(C)(=O)=O)CC2)CC1`, for which, in assay [6], the pIC50 (commonly −log10 of the IC50, conventionally taken in molar units) was below 5.00. Compound `CN1Cc2nccc(-c3cn(C)nc3-c3ccc(F)cc3)c2C1=O` yielded a % of inhibition in assay [7] of 18%. For `Cc1cnc(Nc2ccc(F)cc2Cl)nc1-c1c[nH]c(C(=O)N[C@H](CO)c2cccc(Cl)c2)c1`, the % of inhibition in assay [8] came to 57%. The compound `COc1cc(Nc2nc(C)cc(-c3cnn4nc(OC)ccc34)n2)cc(C(F)(F)F)c1` returned a % of control in assay [9] of 91%. `CN(C)CCCOc1ccc(-c2cc(NCCCn3cccn3)nc(S(C)(=O)=O)n2)cc1`: in assay [10], the dTM was below 2 K.

Regarding `C=CC(=O)Nc1cc(-n2c(=O)ccc3cnc4ccc(-c5ccc(NS(C)(=O)=O)cc5)cc4c32)ccc1C`, the % of control in assay [11] (at 1 µM) stood at 96%; in assay [11] (at 10 µM) it was 92%. `Cc1ccc(-c2ccc3c(ccc4sc5c(c43)NC[C@@H](C)NC5=O)n2)cn1` returned a % of inhibition in assay [12] of 13%. Regarding `COCC(=O)NC/C=C/c1ccc2ncnc(Nc3ccc(Oc4ccc(C)nc4)c(C)c3)c2c1` [CP-724714], in assay [13], the % of control amounted to 88%.
